Source: US20080008774A1, “Use Of Plants, Plant Extracts And Nature-Identical Components From Plants To Affect The Rumen Fermentation And To Improve The Energy And Protein Retention Of Ruminants” (DSM IP ASSETS B.V., priority 2004, published 2008)

Experiments:
[1] = system: lactic acid producing bacteria; experiment: Acidosis assay (pH and lactic acid, milled wheat grain, 48-h fermentation); assay type: cell-based, cows; details: 100 mg/g DM in milled wheat grain (β-myrcene 10 mg/g), control = 100
Experimental: A model was used in which the decrease in incubation medium pH and the concentration of lactic acid produced, relative to the controls over a 48-h fermentation period provided an indication of the ability of the test substrates to offset potential acidotic effects. In this study milled wheat grain [2 mm] was used as the basal substrate and the test materials included at 100 mg g^−1 DM [or 10 mg g^−1 DM β-myrcene]. As before 1.0 g total substrate was added to each flask. To enhance lactic acid production, the buffer solution prepared was diluted by 50 percent. This was to ensure that the buffering capacity of the incubation medium was exceeded and the resulting decrease in pH encouraged growth of Lactobacilli and other lactic acid producing bacteria. Rumen fluid was obtained and prepared as previously described except that the two cows used were offered an early lactation ration with a high level of coarse milled wheat. Fluid pH measurements were made one hour after inoculation [start pH] then after a further 23 and 47 hours, by inserting a pH electrode directly into each flask. Immediately following the last measurement approximately 3.0 ml fluid were taken from each flask, bulked by sample and stored frozen at −20° C. until analyzed enzymatically for L [+] lactic acid. Results are presented as absolute differences relative to the controls. […]

ruminal ciliate protozoa = experiment: Bacteriolytic activity of ruminal ciliate protozoa (breakdown of 14C-leucine-labelled Selenomonas ruminantium in strained ruminal fluid); assay type: cell-based, sheep
Experimental: The rate of breakdown of [^14C]leucine-labelled Selenomonas ruminantium was determined by incubating strained ruminal fluid in vitro with labelled S. ruminantium in the presence of 5 mM unlabelled L-leucine as described previously (Wallace & McPherson, 1987). Under these conditions, the great majority of bacterial protein breakdown is caused by the ingestion and digestion of bacteria by ciliate protozoa. The samples were, unless stated otherwise, added at a concentration of 5 mg/ml. The sheep received a mixed grass hay:concentrate diet (Frumholtz et al., 1989).

ruminal fermentation [2] = experiment: Hohenheim methods for general effects on fermentation (RPT, grass silage); assay type: cell-based, non-lactating Holstein cows; details: Hohenheim diet; amount in feed 10 %; control = 100
ruminal fermentation [3] = experiment: León methods for general effects on fermentation (batch cultures); assay type: cell-based, sheep; details: Leon diet; amount in feed 10 %; 24 h; control = 100
Experimental: Rumen cannulated sheep fed on a diet consisting of 75% alfalfa hay and 25% barley (free access to vitamin-mineral supplements and water) were used as donors for rumen fluid. Rumen fluid was collected just before the morning meal. The substrate used for the batch cultures consisted of 50% alfalfa hay, 40% grass hay and 10% barley grain, milled in a hammer mill with a 1-mm screen. The amount of substrate used was 500 mg, and inclusion rate of the test plant was 10% (ca. 50 mg). Both were weighed into serum bottles, where 50 ml of buffered rumen fluid (containing 10 ml of filtered rumen fluid and 40 ml of the medium described by Goering & Van Soest, 1970) were dispensed an-aerobically. The bottles were sealed and incubated at 39° C. After 24 h of incubation, the ensuing measurements were recorded: • Total gas production (ml), using a pressure transducer and collecting the gas in a calibrated syringe. • pH in the incubation medium. • Volatile fatty acids concentration in the incubation medium, by GC (VFA was also measured at inoculation time to calculate VFA production after 24 h). • DM incubation residue, by filtering the bottle contents in sintered crucibles and weighing the residue after drying. Thereafter, the neutral detergent fibre (NDF) content of the residue was determined to calculate the amount of un-degraded NDF. From this, DM and NDF disappearance were estimated. Three replicates per plant were incubated, and blanks (no substrate no plant) and controls (500 mg substrate without any plant, and 550 mg substrate without any plant) were used.

ruminal fermentation [4] = experiment: Reading methods for general effects on fermentation (RPT, maize silage); assay type: cell-based, lactating dairy cows; details: Reading diet; for Cumulative gas, 24 h / Fermentation efficiency: control = 100; for Dry matter digestion: value in absence of plant material = 100
Experimental: A series of thirteen consecutive fermentations, one per week, was undertaken using the Reading Pressure Technique [RPT], to identify potential effects from including these test materials on the fermentation and degradation characteristics of a basal forage [maize silage]. All materials were examined in triplicate and at two inclusion levels [100 and 400 mg g^−1 DM substrate], with the exception of β-myrcene [10 and 40 mg g^−1 inclusion levels]. The maize silage was pre-dried and milled to pass a 2 mm screen. A total of 1.0 g blended substrate [silage plus substrate] was placed in each fermentation flask. Buffered incubation medium [90 ml] was then added, the flasks sealed and stored overnight at room temperature. Prior to inoculation with prepared rumen fluid, flask contents were raised to 39° C. Rumen fluid was obtained manually [hand-squeezed contents] prior to feeding [07.00 h] from two lactating dairy cows offered a maize/grass silage : concentrate [60:40] ration ad libitum. The fluid was filtered through two layers of muslin and held under CO2 at 39° C. until use. Ten ml prepared fluid was added to each flask and these incubated at 39° C. for the duration of the study. Six negative controls [buffered medium plus rumen fluid only] were included in each run to correct gas values and degradation residues for direct rumen fluid effects. In addition un-supplemented maize silage [1.0 g flask^−1] was included in all runs [six flasks per run]. Results within studies were expressed relative to the positive control values. Headspace gas pressure readings were obtained 2, 4, 6, 8, 10, 12, 14, 16, 18, 21 and 24 hours post-inoculation. Following the last measurement approximately 3.0 ml fermentation medium was sampled from each flask and bulked by test material/inclusion level and stored frozen [−20° C.] until later analysis for VFA composition using a Varian 3600 GC. Fermentation residues were recovered by filtering flask contents through 60 ml Gooch crucibles [porosity 1, 100 to 160 μm] under light vacuum. The residues were then dried [100° C. for 24 hours], weighed, ashed [500° C. overnight] and reweighed. The quantity of dry matter [DM] and organic matter [OM] determined were used to assess iDMD and iOMD [in vitro DM and OM degradation, respectively]. The extent [ml gas g^−1 OM incubated] and rate of fermentation gas release [ml h^−1] were generated using a previously derived quadratic function to convert pressure to volume. Feed fermentation efficiency [FE] was estimated as iDMD [g kg^−1]/cumulative gas [ml] release at 24 h post-inoculation. Statistical differences between treatment means and the positive control [maize silage alone] were assessed using Students T-test and significance declared at […].

ruminal digesta [5] = experiment: Methane formation by ruminal digesta (León incubations, GC); assay type: cell-based, sheep
Experimental: A representative sample of the gas produced was taken for subsequent analysis. Sampling was conducted using special gas-tight glass syringes fitted with a valve allowing for sample locking and storage. The sample was collected directly from the headspace, after inserting the needle through the septum of the stopper, taking a sample in the syringe and closing the valve. This sample was collected after measuring total gas production, assuming that gas composition was the same in the gas released and in that remaining in the headspace. Methane concentration in the gas produced was determined by gas chromatography. The gas sample (300 to 500 μl) was injected directly from the gas-tight syringe to the corresponding port. The GC parameter settings used for the analysis were: • Instrument: Shimadzu GC-14B provided with a flame ionisation detector (FID) • Column: 2.3 meters length×2.1 mm internal diameter stainless steel column packed with 60/80 mesh Carboxen 1000 stationary phase • Carrier gas: Helium, flow rate (100 kPa), Constant flow mode • Temperatures: • Detector: FID. Temperature 200° C., Synthetic Air flow rate (50 kPa), H2 flow rate (50 kPa) • Injector: Temperature 200° C. • Column-oven: 170° C. […] The standard curve was established by plotting a linear regression of the standard quantities injected of methane versus the area of the peaks to obtain the response factor.

ruminal digesta [6] = experiment: Proteolytic activity of ruminal digesta, Method 1 (14C-casein); assay type: cell-based, sheep; details: 2.5 mg/ml, 1 h; value in absence of plant material = 100
Experimental: Method 1. Strained ruminal fluid from the same sheep was used to determine proteolytic activity using the ^14C-casein method of Wallace (1983). Samples were added to a final concentration of 2.5 mg/ml, and an incubation time of 1 h was used.

[7] = amount in feed 10 % (β-myrcene 10 mg/g)
[8] = amount in feed 40 % (β-myrcene 40 mg/g)

With C=CC(=C)CCC=C(C)C [Sample 13, β-Myrcene] the “Acidity, 24 h” value ([1]; 24 h) was 105, the “Acidity, 48 h” value ([1]; 48 h) was 115 and the “bacteriolytic activity of ciliate protozoa / protozoal activity (in words)” value (ruminal ciliate protozoa) was “moderate inhibiting effect”. For the same compound, the Protozoal activity (ruminal ciliate protozoa; 5 mg/ml, value in absence of plant material = 100) was 68, the C3/C2 (ruminal fermentation [2]) was 104 and the Digestibility (ruminal fermentation [2]) was 100. For the same compound, the Fermentation efficiency (ruminal fermentation [2]) was 99, the Gas production (ruminal fermentation [2]) was 101 and the SCFA (ruminal fermentation [2]) was 103. For the same compound, the App. digestibility (ruminal fermentation [3]) was 93, the C3/C2 (ruminal fermentation [3]) was 105 and the Digestibility (ruminal fermentation [3]) was 102. The Fermentation efficiency (ruminal fermentation [3]) was 109, the Gas production (ruminal fermentation [3]) was 97 and the Microbial biomass (ruminal fermentation [3]) was 115. For the same compound, the TVFA (ruminal fermentation [3]) was 96, the “Cumulative gas, 24 h” value (ruminal fermentation [4]; [7]) was 100 and the Fermentation efficiency (ruminal fermentation [4]; [7]) was 103. For the same compound, the Dry matter digestion (ruminal fermentation [4]; [7]) was 103, the “Cumulative gas, 24 h” value (ruminal fermentation [4]; [8]) was 82 and the Fermentation efficiency (ruminal fermentation [4]; [8]) was 109. For the same compound, the Dry matter digestion (ruminal fermentation [4]; [8]) was 89, the “methane production / methanogenic activity (in words)” value (ruminal digesta [5]) was “decrease” and the “Methane formation, Leon” value (ruminal digesta [5]; 10% of feed, value in absence of plant material = 100) was 90. For the same compound, the “Proteolysis, Method 1” value (ruminal digesta [6]) was 110.
